Results: PubChem BioAssay AID248 (DTP/NCI, 2004)
Values joined by “and” are separate entries in the source; they are usually repeats but may differ in a detail not shown here. Equal entries are not always repeated. Inconclusive results and toxic doses are left out.

System: L1210 leukemia ip in BDF1 mice, survival T/C
Assay: NCI In Vivo Anticancer Drug Screen. Data for tumor model L1210 Leukemia (intraperitoneal) in B6D2F1 (BDF1) mice
Conditions: endpoint: mean survival time, higher = longer survival
Summary of the method: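 Transplanted-tumor mice were given test agent; controls received vehicle only. Survival readings from the two groups were divided (treated over control).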

[1] = dose: 100.0 mg/kg/injection, schedule: Q01DX001 (ip), vehicle: carboxymethylcellulose (CMC)
[2] = dose: 200.0 mg/kg/injection, schedule: Q01DX001 (ip), vehicle: carboxymethylcellulose (CMC)
[3] = dose: 400.0 mg/kg/injection, schedule: Q01DX001 (ip), vehicle: carboxymethylcellulose (CMC)
[4] = dose: 100.0 mg/kg/injection, schedule: Q04DX002 (ip), vehicle: gum acacia
[5] = dose: 200.0 mg/kg/injection, schedule: Q04DX002 (ip), vehicle: gum acacia
[6] = dose: 400.0 mg/kg/injection, schedule: Q04DX002 (ip), vehicle: gum acacia
[7] = dose: 100.0 mg/kg/injection, schedule: Q04DX003 (ip), vehicle: Klucel (hydroxypropylcellulose) (HPC)
[8] = dose: 200.0 mg/kg/injection, schedule: Q04DX003 (ip), vehicle: Klucel (hydroxypropylcellulose) (HPC)
[9] = dose: 400.0 mg/kg/injection, schedule: Q04DX003 (ip), vehicle: Klucel (hydroxypropylcellulose) (HPC)
[10] = dose: 100.0 mg/kg/injection, schedule: Q04DX002 (ip), vehicle: Klucel (hydroxypropylcellulose) (HPC)
[11] = dose: 200.0 mg/kg/injection, schedule: Q04DX002 (ip), vehicle: Klucel (hydroxypropylcellulose) (HPC)
[12] = dose: 400.0 mg/kg/injection, schedule: Q04DX002 (ip), vehicle: Klucel (hydroxypropylcellulose) (HPC)
[13] = dose: 100.0 mg/kg/injection, schedule: Q04DX003 (ip), vehicle: saline with Tween-80
[14] = dose: 200.0 mg/kg/injection, schedule: Q04DX003 (ip), vehicle: saline with Tween-80
[15] = dose: 400.0 mg/kg/injection, schedule: Q04DX003 (ip), vehicle: saline with Tween-80
[16] = dose: 5.0 mg/kg/injection, schedule: Q01DX001 (ip), vehicle: saline
[17] = dose: 10.0 mg/kg/injection, schedule: Q01DX001 (ip), vehicle: saline
[18] = dose: 20.0 mg/kg/injection, schedule: Q01DX001 (ip), vehicle: saline

For CCNC(=O)c1cc[n+](CC)c(/C=C/c2c[nH]c3ccccc23)c1, the T/C [1] was 96 % of control, the T/C [2] was 98 % of control and the T/C [3] was 100 % of control.
For NCCOP(=O)(O)O, the T/C (dose: 50.0 mg/kg/injection, schedule: Q01DX009 (ip), vehicle: saline) was 95 % of control, the T/C (dose: 100.0 mg/kg/injection, schedule: Q01DX009 (ip), vehicle: saline) was 98 % of control and the T/C (dose: 200.0 mg/kg/injection, schedule: Q01DX009 (ip), vehicle: saline) was 106 % of control.
For O=C(NC(=S)N1CC=CCC1)c1ccccc1, the T/C [4] was 97 % of control, the T/C [5] was 100 % of control and the T/C [6] was 93 % of control.
In the case of CCCCCCCCCCCCCCCCC(Oc1ccc(Cl)cc1Cl)C(=O)O (centres undefined), the T/C [7] is reported as 102 % of control, the T/C [8] is reported as 98 % of control and the T/C [9] is reported as 101 % of control.
O=C(O)COc1c(F)cc([N+](=O)[O-])cc1[N+](=O)[O-] was tested, and the T/C [10] was 106 % of control, the T/C [11] was 91 % of control and the T/C [12] was 111 % of control.
c1ccc2[nH]c(C(=C(c3nc4ccccc4[nH]3)c3nc4ccccc4[nH]3)c3nc4ccccc4[nH]3)nc2c1 was tested, and the T/C (dose: 100.0 mg/kg/injection, schedule: Q01DX001 (ip), vehicle: Klucel (hydroxypropylcellulose) (HPC)) was 87 % of control, the T/C [7] was 97 % of control and the T/C (dose: 200.0 mg/kg/injection, schedule: Q01DX001 (ip), vehicle: Klucel (hydroxypropylcellulose) (HPC)) was 87 % of control. For the same compound, the T/C [8] was 112 % of control and the T/C [9] was 90 % of control.
CC(=O)OCC1CC2C=CC1C2 (centres undefined) was tested, and the T/C (dose: 222.0 mg/kg/injection, schedule: Q01DX Z (ip), vehicle: saline) was 98 % of control, the T/C (dose: 333.0 mg/kg/injection, schedule: Q01DX Z (ip), vehicle: saline) was 102 % of control and the T/C (dose: 500.0 mg/kg/injection, schedule: Q01DX Z (ip), vehicle: saline) was 104 % of control.
CC(=O)OCC1OC(Sc2nc3ncnc(N)c3[nH]2)C(OC(C)=O)C(OC(C)=O)C1OC(C)=O (centres undefined) was tested, and the T/C (dose: 100.0 mg/kg/injection, schedule: Q01DX001 (ip), vehicle: saline) was 104 % of control, the T/C (dose: 200.0 mg/kg/injection, schedule: Q01DX001 (ip), vehicle: saline) was 102 % of control and the T/C (dose: 400.0 mg/kg/injection, schedule: Q01DX001 (ip), vehicle: saline) was 97 % of control.
CC1(C)CCCC(OC(=O)c2ccc([N+](=O)[O-])cc2)C1 (centres undefined) was tested, and the T/C [1] was 93 % of control, the T/C [2] was 96 % of control and the T/C [3] was 102 % of control.
OC(c1ccccc1)(c1ccccc1)C1c2ccccc2-c2[nH]c3ccccc3c21 (centres undefined) was tested, and the T/C (dose: 200.0 mg/kg/injection, schedule: Q01DX001 (ip), vehicle: saline with Tween-80) was 91 % of control.
CCOC(=O)C1(C(=O)OCC)CCC2Nc3cc4c(cc3C(=O)N21)OCO4 (centres undefined) was tested, and the T/C (dose: 12.5 mg/kg/injection, schedule: Q04DX003 (ip), vehicle: Klucel (hydroxypropylcellulose) (HPC)) was 99 % of control, the T/C (dose: 25.0 mg/kg/injection, schedule: Q04DX003 (ip), vehicle: Klucel (hydroxypropylcellulose) (HPC)) was 100 % of control and the T/C (dose: 50.0 mg/kg/injection, schedule: Q04DX003 (ip), vehicle: Klucel (hydroxypropylcellulose) (HPC)) was 96 % of control.
In the case of CN(C)C(=S)Oc1ccccc1[N+](=O)[O-], the T/C [13] is reported as 100 % of control, the T/C [14] is reported as 103 % of control and the T/C [15] is reported as 114 % of control.
With Brc1c2ccccc2cc2ccccc12 the T/C [4] was 101 % of control, the T/C [5] was 93 % of control and the T/C [6] was 96 % of control.
CCOC(=O)CC(=O)N/N=C(/C)C(=O)OCC was tested, and the T/C (dose: 100.0 mg/kg/injection, schedule: Q01DX009 (ip), vehicle: saline with Tween-80) was 94 % of control, the T/C [13] was 97 % of control and the T/C (dose: 200.0 mg/kg/injection, schedule: Q01DX009 (ip), vehicle: saline with Tween-80) was 87 % of control. The T/C [14] was 105 % of control, the T/C (dose: 400.0 mg/kg/injection, schedule: Q01DX009 (ip), vehicle: saline with Tween-80) was 97 % of control and the T/C [15] was 105 % of control.
Cc1cc(/C=N/Nc2ccc3cccc(O)c3n2)c(O)c2ncccc12 was tested, and the T/C [2] was 93 % of control.
For CC(=O)Nc1ccn(C2OC(COC(C)=O)C(OC3OC4COC(c5ccccc5)OC4C(OC(C)=O)C3OC(C)=O)C(OC(C)=O)C2OC(C)=O)c(=O)n1 (centres undefined), the T/C (dose: 22.5 mg/kg/injection, schedule: Q01DX001 (ip), vehicle: carboxymethylcellulose (CMC)) was 97 % of control, the T/C (dose: 45.0 mg/kg/injection, schedule: Q01DX001 (ip), vehicle: carboxymethylcellulose (CMC)) was 103 % of control and the T/C (dose: 90.0 mg/kg/injection, schedule: Q01DX001 (ip), vehicle: carboxymethylcellulose (CMC)) was 92 % of control. The T/C (dose: 180.0 mg/kg/injection, schedule: Q01DX001 (ip), vehicle: carboxymethylcellulose (CMC)) was 97 % of control.
In the case of O=C(Oc1ccc([N+](=O)[O-])cc1)c1cccc(S(=O)(=O)F)c1, the T/C [1] is reported as 93 % of control and 102 % of control, the T/C (dose: 100.0 mg/kg/injection, schedule: Q01DX009 (ip), vehicle: carboxymethylcellulose (CMC)) is reported as 103 % of control and 110 % of control and the T/C (dose: 100.0 mg/kg/injection, schedule: Q04DX003 (ip), vehicle: carboxymethylcellulose (CMC)) is reported as 104 % of control. For the same compound, the T/C [2] was 98 % of control and 101 % of control, the T/C (dose: 200.0 mg/kg/injection, schedule: Q01DX009 (ip), vehicle: carboxymethylcellulose (CMC)) was 92 % of control and 94 % of control and the T/C (dose: 200.0 mg/kg/injection, schedule: Q04DX003 (ip), vehicle: carboxymethylcellulose (CMC)) was 102 % of control and 90 % of control. The T/C [3] was 98 % of control and 101 % of control, the T/C (dose: 400.0 mg/kg/injection, schedule: Q01DX009 (ip), vehicle: carboxymethylcellulose (CMC)) was 92 % of control and the T/C (dose: 400.0 mg/kg/injection, schedule: Q04DX003 (ip), vehicle: carboxymethylcellulose (CMC)) was 96 % of control and 90 % of control.
O=C(CBr)c1ccncc1 was tested, and the T/C [16] was 103 % of control, the T/C [17] was 103 % of control and the T/C [18] was 94 % of control.
In the case of NC(=O)c1cccs1, the T/C [16] is reported as 98 % of control, the T/C [17] is reported as 98 % of control and the T/C [18] is reported as 98 % of control. The T/C (dose: 40.0 mg/kg/injection, schedule: Q01DX001 (ip), vehicle: saline) was 102 % of control.
CCOC(=O)Cc1c(C(=O)OCC)nnn1-c1ccc([N+](=O)[O-])cc1 was tested, and the T/C [10] was 97 % of control, the T/C [11] was 97 % of control and the T/C [12] was 93 % of control.
O=C(Nc1ccc(C2=NCCN2)cc1)Nc1cccc(C(=O)Nc2ccc(C3=NCCN3)cc2)c1 was tested, and the T/C (dose: 1.0 mg/kg/injection, schedule: Q01DX Z (ip), vehicle: carboxymethylcellulose (CMC)) was 106 % of control, the T/C (dose: 2.0 mg/kg/injection, schedule: Q01DX Z (ip), vehicle: carboxymethylcellulose (CMC)) was 117 % of control and the T/C (dose: 3.75 mg/kg/injection, schedule: Q01DX Z (ip), vehicle: saline) was 97 % of control. The T/C (dose: 4.0 mg/kg/injection, schedule: Q01DX Z (ip), vehicle: carboxymethylcellulose (CMC)) was 122 % of control, the T/C (dose: 7.5 mg/kg/injection, schedule: Q01DX Z (ip), vehicle: saline) was 100 % of control and the T/C (dose: 8.0 mg/kg/injection, schedule: Q01DX Z (ip), vehicle: carboxymethylcellulose (CMC)) was 150 % of control and 158 % of control. The T/C (dose: 15.0 mg/kg/injection, schedule: Q01DX Z (ip), vehicle: saline) was 110 % of control, the T/C (dose: 16.0 mg/kg/injection, schedule: Q01DX Z (ip), vehicle: carboxymethylcellulose (CMC)) was 225 % of control and the T/C (dose: 30.0 mg/kg/injection, schedule: Q01DX Z (ip), vehicle: carboxymethylcellulose (CMC)) was 154 % of control. For the same compound, the T/C (dose: 31.0 mg/kg/injection, schedule: Q01DX Z (ip), vehicle: carboxymethylcellulose (CMC)) was 250 % of control, the T/C (dose: 62.0 mg/kg/injection, schedule: Q01DX Z (ip), vehicle: carboxymethylcellulose (CMC)) was 207 % of control and 320 % of control and the T/C (dose: 120.0 mg/kg/injection, schedule: Q01DX Z (ip), vehicle: carboxymethylcellulose (CMC)) was 198 % of control. For the same compound, the T/C (dose: 120.0 mg/kg/injection, schedule: Q01DX Z (oral), vehicle: saline) was 101 % of control, the T/C (dose: 125.0 mg/kg/injection, schedule: Q01DX Z (ip), vehicle: carboxymethylcellulose (CMC)) was 200 % of control and the T/C (dose: 240.0 mg/kg/injection, schedule: Q01DX Z (ip), vehicle: saline) was 233 % of control. The T/C (dose: 240.0 mg/kg/injection, schedule: Q01DX Z (oral), vehicle: saline) was 101 % of control and the T/C (dose: 480.0 mg/kg/injection, schedule: Q01DX Z (oral), vehicle: saline) was 104 % of control.
In the case of COC(OC)c1[nH]c(=S)[nH]c(=O)c1C, the T/C [13] is reported as 107 % of control, the T/C [14] is reported as 105 % of control and the T/C [15] is reported as 105 % of control.
